Measured values: US20240360148A1 (SUVALENT THERAPEUTICS, INC., priority 2021, published 2024)

Tests used:
[1] = system: sumoylation levels (SUMO 2/3 conjugates) in HCT-116 cells; experiment: HCT-116 4 Hour Cell Assay (Western, SUMO 2/3 conjugates); assay type: cell-based; settings: Homo sapiens, HCT-116, 4 h, 4 h treatment, Anti-Sumo 2-3 immunoblot, read-out: HCT-116 Western 4 h IC50 (μM) Ave
Procedure: This protocol describes the procedures used to assess the effects of compounds of interest on sumoylation levels. Immunoblot of SUMO 2/3 conjugates are performed and IC50 curves are generated upon quantification of sumoylations bands. HCT-116 cells are seeded in a 12 well plate (500,000 cells/well). The following day the cells are treated with compounds of interest (resuspended in DMSO) for 4 hours (11 concentrations with a three-fold dilution; starting concentration 25 μM) Following 4 hours of incubation the cells are washed with ice cold PBS 1×and protein extraction is performed with RIPA buffer supplemented with phosphatases and proteases inhibitors, 25 mM of NEM and 50 units/mL of Benzonase. Samples undergo centrifugation at 13,000 RPM, 4° C., for 10 minutes and the supernatant is collected. Protein quantification is performed using BCA. Non-Reducing Laemmli Buffer is added to the samples. Samples are heated at 75° C. for 10 minutes, and are centrifuged for 3 minutes at 9000 RPM Nupage 4-12% Bis Tris gels and 1× MOPS buffer (Fisher Scientific)+1× NuPAGE Antioxidant (Invitrogen) are used to perform the SDS-PAGE gel electrophoresis (20 to 40 μg of proteins are loaded in the gels). Proteins are then transferred to PVDF membranes and the level of total proteins are measured by staining with Revert Total Protein Stain and the fluorescent bands are acquired using the LI-COR FC (700 nm for 1 min) Membranes are blocked for 5 minutes with Bio-Rad Blocking Buffer and are subsequently incubated over night at 4° C. with Anti-Sumo 2-3 mAb (M BL #M114-3, 1:1000 in Bio-Rad Blocking Buffer, 0.2% Tween 20) Membranes are washed with 1×TBS-T (3 times for 5 minutes) and sumoylation is detected using Li-cor IRDye 800CW Goat anti-Mouse IgG secondary antibody (1:10,000 dilution) upon 1 hour of incubation in blocking buffer with 0.2% Tween 20 and 0.01% SDS. After the incubation, the membranes are washed with 1×TBS-T (3 times for 5 minutes). To visualize the fluorescent bands the membranes are scanned with LI-COR FC (700 nm for 1 min and […] for 2 mins). Sumoylation levels are quantified upon normalization with total protein levels, using the LI-COR Image Studio Lite 5.2 Software.

SAE1 = SAE1 (Homo sapiens (Human), UniProt Q9UBE0+Q9UBT2); experiment: SAE High Throughput Biochemical Assay (HTRF), 15 min preincubation; settings: read-out: 15 min preincubation HTRF IC50 (μM) Ave, SAE1 12.5 nM, ATP 100 μM
Outline: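 SAE1 (12.5 nM) was preincubated with compound for 15 min at RT in HEPES pH 7.5, 0.1% BSA, 10 mM MgCl2. The reaction was then started with SUMO-GST and UBC9-His (40 nM each) plus 100 μM ATP for 45 min. After KF stop, HTRF (anti-GST-XL665/anti-His-EuK) was read at 2 h and overnight; some compounds were tested singly at 25 micromolar as percent of control.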

Chain of SAE1 (Q9UBE0 whole entry): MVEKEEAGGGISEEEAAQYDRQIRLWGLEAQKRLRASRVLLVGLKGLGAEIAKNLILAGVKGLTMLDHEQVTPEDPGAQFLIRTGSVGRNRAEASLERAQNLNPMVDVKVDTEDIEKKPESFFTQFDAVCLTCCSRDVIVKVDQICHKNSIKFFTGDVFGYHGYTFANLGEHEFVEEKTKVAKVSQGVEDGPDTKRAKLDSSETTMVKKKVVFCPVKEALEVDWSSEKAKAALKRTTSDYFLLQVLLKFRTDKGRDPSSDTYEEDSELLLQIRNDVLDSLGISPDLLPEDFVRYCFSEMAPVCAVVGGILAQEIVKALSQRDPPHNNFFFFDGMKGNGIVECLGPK
Chain of SAE1 (Q9UBT2 whole entry): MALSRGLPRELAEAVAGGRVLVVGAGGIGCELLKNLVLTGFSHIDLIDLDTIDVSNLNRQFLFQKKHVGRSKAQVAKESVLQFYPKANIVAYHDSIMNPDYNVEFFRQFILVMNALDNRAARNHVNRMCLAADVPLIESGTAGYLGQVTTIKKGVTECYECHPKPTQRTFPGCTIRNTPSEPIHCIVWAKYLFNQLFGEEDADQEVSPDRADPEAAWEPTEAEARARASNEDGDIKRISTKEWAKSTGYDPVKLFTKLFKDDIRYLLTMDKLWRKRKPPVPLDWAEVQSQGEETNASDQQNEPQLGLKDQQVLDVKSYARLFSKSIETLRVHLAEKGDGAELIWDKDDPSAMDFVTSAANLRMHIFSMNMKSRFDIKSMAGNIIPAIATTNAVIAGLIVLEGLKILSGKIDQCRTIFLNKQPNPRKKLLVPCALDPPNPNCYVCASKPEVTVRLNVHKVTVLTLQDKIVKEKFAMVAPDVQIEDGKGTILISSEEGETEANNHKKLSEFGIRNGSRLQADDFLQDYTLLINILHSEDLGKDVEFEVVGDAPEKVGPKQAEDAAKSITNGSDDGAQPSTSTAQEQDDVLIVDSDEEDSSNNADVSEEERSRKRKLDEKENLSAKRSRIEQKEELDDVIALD

SMILES	IC50 [1]	IC50 (SAE1)
CCn1cc(-c2c(F)cccc2[C@@H]2CN(C(=O)/C=C/C3CC[C@@H](C)N3)Cc3sc(C#N)cc32)c(C(F)(F)F)n1 (stereo in doubt) [Example 93, (S)-4-(2-(1-ethyl-3-(trifluoromethyl)-1H pyrazol-4-yl)-3-fluorophenyl)-6-((E)-3-((2S,5R)-5-methylpyrrolidin-2-yl)acryloyl)-4,5,6,7-tetrahydrothieno[2,3-c]pyridine-2-carbonitrile]	0.145 µM	0.76 µM
Cc1c(C#N)sc2c1[C@H](c1cccc(F)c1-c1cn(C)nc1C(F)(F)F)CN(C(=O)/C=C/CN(C)C)C2 [Compound 220]	0.0573 µM	0.067 µM
Cc1c(C#N)sc2c1[C@H](c1cccc(F)c1-c1c[nH]nc1C(F)(F)F)CN(C(=O)/C=C/CN(C)C)C2 [Compound 221]	0.134 µM	0.347 µM
CCn1cc(-c2c(F)cccc2[C@@H]2CN(C(=O)/C=C/CN)Cc3sc(C#N)c(C)c32)c(C(F)(F)F)n1 [Compound 224]	0.106 µM	0.172 µM
C=CC(=O)N1Cc2sc(C#N)cc2C(c2ccc(NC(C)=O)cc2-c2cn(CC)nc2C(F)(F)F)C1 (stereo not drawn) [Compound 230]	5.39 µM	1.1 µM
C=CC(=O)N1Cc2sc(C#N)c(C)c2C(c2ccccc2-c2cn(CC)nc2C(F)(F)F)C1 (stereo not drawn) [Compound 231]	1 µM	0.16 µM
CCn1cc(-c2ccccc2C2CN(C(=O)/C=C/CN(C)C)Cc3sc(C#N)c(C)c32)c(C(F)(F)F)n1 (stereo not drawn) [Compound 232]	0.402 µM	1.36 µM
CCn1cc(-c2ccccc2[C@H]2c3cc(C#N)sc3CN(C(=O)/C=C/CN(C)C)[C@@H]2C)c(C(F)(F)F)n1 [Compound 233]	0.914 µM	4.82 µM
CCn1cc(-c2c(F)cccc2C2CN(C(=O)/C=C/CN(C)C)Cc3sc(C#N)cc32)c(C(F)(F)F)n1 (stereo not drawn) [Compound 234]	0.339 µM	2.23 µM
C=CC(=O)N1Cc2sc(C#N)cc2C(c2cccc(F)c2-c2cn(CC)nc2C(F)(F)F)C1 (stereo not drawn) [Compound 236]	0.356 µM	0.24 µM
CCn1cc(C2=C([C@@H]3CN(C(=O)/C=C/CN(C)C)Cc4sc(C#N)cc43)CCCC2)c(C(F)(F)F)n1 [Compound 237]	0.897 µM	2.64 µM
CCn1cc(-c2c(F)cc(F)cc2[C@@H]2CN(C(=O)/C=C/CN(C)C)Cc3sc(C#N)cc32)c(C(F)(F)F)n1 [Compound 238]	0.844 µM	1.79 µM
CCn1cc(-c2ccccc2[C@@H]2CN(C(=O)/C=C/CN(C)C)Cc3sc(C#N)c(C)c32)c(C(F)(F)F)n1 [Compound 239]	0.187 µM	1.12 µM
CCn1cc(-c2c([C@@H]3CN(C(=O)/C=C/CN(C)C)Cc4sc(C#N)cc43)ccc(O)c2F)c(C(F)(F)F)n1 [Compound 240]	0.187 µM	0.81 µM
CCn1cc(-c2c(C(F)F)cccc2C2CN(C(=O)/C=C/CN(C)C)Cc3sc(C#N)cc32)c(C(F)(F)F)n1 (stereo not drawn) [Compound 241]	0.445 µM	5.52 µM
CCn1cc(-c2c(C)cccc2[C@@H]2CN(C(=O)/C=C/CN(C)C)Cc3sc(C#N)cc32)c(C(F)(F)F)n1 [Compound 242]	1.29 µM	2.32 µM
CCn1cc(-c2c(Cl)cccc2[C@@H]2CN(C(=O)/C=C/CN(C)C)Cc3sc(C#N)cc32)c(C(F)(F)F)n1 [Compound 243]	0.502 µM	1.17 µM
CCn1cc(-c2ccccc2[C@@H]2CN(C(=O)/C=C/CNC(C)(C)CO)Cc3sc(C#N)cc32)c(C(F)(F)F)n1 [Compound 244]	1.97 µM	2.88 µM
CCn1cc(-c2ccccc2[C@@H]2CN(C(=O)/C=C/CN(C)C)Cc3sc(C#N)c(Cl)c32)c(C(F)(F)F)n1 [Compound 247]	0.2 µM	1.66 µM
CN(C)C/C=C/C(=O)N1Cc2sc(C#N)cc2[C@H](c2ccccc2-c2cn(C)nc2C(F)(F)F)C1 [Example 3, (S, E)-6-(4-(Dimethylamino)but-2-enoyl)-4-(2-(1-methyl-3-(trifluoromethyl)-1 H-pyrazol-4-yl)phenyl)-4,5,6,7-tetrahydrothieno[2,3-c]pyridine-2-carbonitrile]	0.985 µM	7.87 µM
CCn1cc(-c2ccccc2[C@@H]2CN(C(=O)/C=C/CN3CCC(C(=O)O)C3)Cc3sc(C#N)cc32)c(C(F)(F)F)n1 (stereo partly drawn) [Example 5, 1-((E)-4-((S)-2-Cyano-4-(2-(1-ethyl-3-(trifluoromethyl)-1 H-pyrazol-4-yl)phenyl)-4,7-dihydrothieno[2,3-c]pyridin-6(5H)-yl)-4-oxobut-2-en-1-yl)pyrrolidine-3-carboxylic acid]	14.1 µM	10.3 µM
CN(C)C/C=C/C(=O)N1Cc2sc(C#N)cc2[C@H](c2ccccc2-c2cn(CCF)nc2C(F)(F)F)C1 [Example 17, (S,E)-6-(4-(dimethylamino)but-2-enoyl)-4-(2-(1-(2-fluoroethyl)-3-(trifluoromethyl)-1 H-pyrazol-4-yl)phenyl)-4,5,6,7-tetrahydrothieno[2,3-c]pyridine-2-carbonitrile]	0.269 µM	2.47 µM
CCn1cc(-c2ccccc2[C@@H]2CN(C(=O)/C=C/CF)Cc3sc(C#N)cc32)c(C(F)(F)F)n1 [Example 20, (S, E)-4-(2-(1-ethyl-3-(trifluoromethyl)-1 H-pyrazol-4-yl)phenyl)-6-(4-fluorobut-2-enoyl)-4,5,6,7-tetrahydrothieno[2,3-c]pyridine-2-carbonitrile]	0.692 µM	0.69 µM
CCn1cc(-c2ccccc2[C@@H]2CN(C(=O)/C=C/C(F)F)Cc3sc(C#N)cc32)c(C(F)(F)F)n1 [Example 21, (S, E)-6-(4,4-difluorobut-2-enoyl)-4-(2-(1-ethyl-3-(trifluoromethyl)-1H-pyrazol-4-yl)phenyl)-4,5,6,7-tetrahydrothieno[2,3-c]pyridine-2-carbonitrile]	0.12 µM	
CCN(CC)C/C=C/C(=O)N1Cc2sc(C#N)cc2[C@H](c2ccccc2-c2cn(CC)nc2C(F)(F)F)C1 [Example 28, (S, E)-6-(4-(Diethylamino)but-2-enoyl)-4-(2-(1-ethyl-3-(trifluoromethyl)-1 H-pyrazol-4-yl)phenyl)-4,5,6,7-tetrahydrothieno[2,3-c]pyridine-2-carbonitrile]	0.331 µM	8.43 µM
CCn1cc(-c2ccccc2[C@@H]2CN(C(=O)/C=C/CN3CCCC3)Cc3sc(C#N)cc32)c(C(F)(F)F)n1 [Example 30, (S, E)-4-(2-(1-ethyl-3-(trifluoromethyl)-1 H-pyrazol-4-yl)phenyl)-6-(4-(pyrrolidin-1-yl)but-2-enoyl)-4,5,6,7-tetrahydrothieno[2,3-c]pyridine-2-carbonitrile]	0.746 µM	3.3 µM
CCn1cc(-c2ccccc2C2CN(C(=O)/C=C/CN(C)C)Cc3sc(C#N)c(F)c32)c(C(F)(F)F)n1 (stereo not drawn) [Example 213, (E)-6-(4-(dimethylamino)but-2-enoyl)-4-(2-(1-ethyl-3-(trifluoromethyl)-1 H pyrazol-4-yl)phenyl)-3-fluoro-4,5,6,7-tetrahydrothieno[2,3-c]pyridine-2-carbonitrile]		8.81 µM
CCn1cc(-c2c(F)cccc2[C@@H]2CN(C(=O)/C=C/[C@@H](C)NC)Cc3sc(C#N)c(C)c32)c(C(F)(F)F)n1 [Example 218, (S)-4-(2-(1-ethyl-3-(trifluoromethyl)-1 H-pyrazol-4-yl)-3-fluorophenyl)-3-methyl-6-((R, E)-4-(methylamino)pent-2-enoyl)-4,5,6,7-tetrahydrothieno[2,3-c]pyridine-2-carbonitrile]		0.81 µM
CN[C@@H](C)/C=C/C(=O)N1Cc2sc(C#N)c(C)c2[C@H](c2cccc(F)c2-c2cn(C)nc2C(F)(F)F)C1 [Example 219, (S)-4-(3-fluoro-2-(1-methyl-3-(trifluoromethyl)-1 H-pyrazol-4-yl)phenyl)-3-methyl-6-((S, E)-4-(methylamino)pent-2-enoyl)-4,5,6,7-tetrahydrothieno[2,3-c]pyridine-2-carbonitrile]		1.01 µM
